“Also recorded” adds a separate entry of the source.
Tests used:
[1] = biological target: T1, Trypsin-like proteasome activity in HeLa S3 cell lysates (Homo sapiens, UniProt Q99436); assay: Proteasome activity assay, trypsin-like; type: biochemical; settings: read-out: Inhibition (IC50) Trypsin-like
T1 construct: proteasomes were extracted in 0.5% NP40 buffer; endogenous in cells; host or cells: HeLa S3
Protocol: (§1) Exponentially growing HeLa S3 cells were plated on 96-well plates. After overnight incubation, the cells were treated with different concentrations of drugs for 6 hours or left untreated (control). At the end of 6 hours, proteasomes were extracted in 0.5% NP40 buffer, and equal amounts of samples were incubated with 25 μM of fluorogenic substrates purchased from Boston Biochem (Cambridge Mass.). (LRR-specific for trypsin-like activity, LLE-specific for caspase-like activity and SUVY-specific for chymotrypsin like activity) in black-bottom 96-well plates at 37° C. Fluorescence was monitored every 5 min at the wavelength of 360 nm (excitation) and 480 nm (emission). Chymotrypsin activity was also determined by a kit-based method (similar to described above) purchased from Caymen Biochem (Ann Arbor, Mich.), using a fluorogenic substrate specific for chymotrypsin activity.
(§2) Analysis of proteasome activity in HeLa S3 cell lysates treated with various compounds (FIG. 10). VR-23 inhibits proteasome activity. 20S proteasome activity was inhibited by 1 μM VR-23. MG132 and EGCG, known proteasome inhibitors, were used as positive controls. The PC positive control is cell lysates prepared from Jurkat cells with a high proteasome activity. “Asynchr” denote asynchronous HeLa S3 cells grown in the absence of VR-23.

20S proteasome = 20S proteasome activity in HeLa S3 cell lysates; type: biochemical; settings: 1 μM VR-23
Protocol: as §1, §2

[2] = Organ weight and histology (liver, spleen, kidney, lung) of ATH490 mice
Protocol: All values are presented as mean±S.E.M. Analyses were performed using GraphPad Prism software (GraphPad Software). Comparison between the groups was made by p value determination using one-way ANOVA. A p value of <0.05 was considered to be statistically significant. […] Each organ weight (%) is normalized with total body weight (BW).
The H&E stained slides were taken with a 20× objective using a Zeiss EPI-fluorescent microscope (bright field). […] At least 10 fields for each slide (one slide per mouse, and 3 mice per group) were examined.
Images were taken with a 10× objective using a Zeiss EPI-fluorescent microscope. […] Drug administration was carried out as described in Table IX and in the Materials and Methods section herein with respect to Animal Studies.
The images of the H&E stained renal tissues were taken with a Zeiss EPI-fluorescent (bright field) microscope using a 10× objective.

[3] = VR-23 30 mg/kg, paclitaxel 20 mg/kg

## O=[N+]([O-])c1ccc(S(=O)(=O)N2CCN(c3ccnc4cc(Cl)ccc34)CC2)c([N+](=O)[O-])c1 [Compound 1, 7-Chloro-4-(4-(2,4-dinitrophenylsulfonyl)piperazin-1-yl)quinoline]
[1]
  IC50: 1 nM
20S proteasome
  20S proteasome activity: inhibited; also recorded: almost completely inhibits
[2]; ATH490 mice, VR-23, 30 mg/week, Paclitaxel, 20 mg/week
  Microscopic Changes (liver): Largely (>95% of cases) normal
[2]; VR-23 30 mg/kg, 29 days post-treatment
  Effects on vital organs by their weights: did not cause any notable ill effects on vital organs
[2]; [3]
  Mitotic index in the liver: did not cause an increase in mitotic index
  Spleen histology (H&E): did not cause any notable toxicity to the spleen
[2]; VR-23 30 mg/kg, paclitaxel 20 mg/kg, four weeks
  Kidney histology (H&E), nephrotoxicity: did not cause any notable toxicity to the kidney

From US9975852B2, “Quinoline sulfonyl derivatives and uses thereof” (Health Sciences North Research Institute, priority 2013, dated 2018)
